Data taken from US20100130469A1, “2, 6-NAPHTHRIDINE DERIVATIVES” (priority 2007, published 2010).

Legend:
PKCη = biological target: T1, PKCη (Homo sapiens, UniProt P24723); test: Protein Kinase Cη assay; assay type: biochemical; details: human recombinant PKCη
T1 construct: purchased PanVera
Method: (§1) The compounds of the invention are tested for their activity on different PKC isotypes according to the following method. Assay is performed in a white with clear bottom 384-well microtiterplate with non-binding surface. The reaction mixture (25 μl) contains 1.5 μM of a tridecapeptide acceptor substrate that mimics the pseudo substrate sequence of PKC a with the Ala→Ser replacement, 10 μM ^33P-ATP, 10 mM Mg(NO3)2, 0.2 mM CaCl2, PKC at a protein concentration varying from 25 to 400 ng/ml (depending on the isotype used), lipid vesicles (containing 30 mol % phosphatidylserine, 5 mol % DAG and 65 mol % phosphatidylcholine) at a final lipid concentration of 0.5 mM, in 20 mM Tris-HCl buffer pH 7.4+0.1% BSA. Incubation is performed for 60 min at room temperature.
Human recombinant PKCη was obtained from PanVera and is used under the assay conditions as described under Section A.1 above.

PKCθ = PKCθ (Homo sapiens, UniProt Q04759); test: Protein Kinase C θ assay; assay type: biochemical; details: ratio of IC50 values
Sequence of PKCθ (Q04759 whole entry): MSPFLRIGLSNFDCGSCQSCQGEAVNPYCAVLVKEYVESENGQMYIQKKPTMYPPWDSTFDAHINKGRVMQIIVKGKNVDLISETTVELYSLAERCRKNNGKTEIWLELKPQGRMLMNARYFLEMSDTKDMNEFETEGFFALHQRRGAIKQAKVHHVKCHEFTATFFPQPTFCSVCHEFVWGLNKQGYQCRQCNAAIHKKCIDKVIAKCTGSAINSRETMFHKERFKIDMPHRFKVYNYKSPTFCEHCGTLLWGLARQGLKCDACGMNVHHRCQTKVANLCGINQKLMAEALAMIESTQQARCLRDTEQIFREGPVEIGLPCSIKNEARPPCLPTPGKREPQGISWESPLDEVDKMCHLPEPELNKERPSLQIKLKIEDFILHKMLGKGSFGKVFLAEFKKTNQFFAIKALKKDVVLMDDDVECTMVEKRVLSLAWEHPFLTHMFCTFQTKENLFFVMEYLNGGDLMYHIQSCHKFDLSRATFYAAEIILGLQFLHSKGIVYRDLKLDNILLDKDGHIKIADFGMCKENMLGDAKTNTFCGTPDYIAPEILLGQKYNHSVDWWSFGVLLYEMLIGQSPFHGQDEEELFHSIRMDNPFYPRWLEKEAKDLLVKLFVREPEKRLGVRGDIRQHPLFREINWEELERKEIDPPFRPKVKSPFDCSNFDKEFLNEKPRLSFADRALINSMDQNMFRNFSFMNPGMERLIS
Method: as §1
Human recombinant PKCθ is used under the assay conditions as described above.

PKCα = biological target: T2, PKCα (Homo sapiens, UniProt P17252); test: Protein Kinase Cα assay; assay type: biochemical; details: ratio of IC50 values
T2 construct: purchased Oxford Biomedical Research
Method: as §1
Human recombinant PKCα was obtained from Oxford Biomedical Research and is used under the assay conditions as described under Section A.1 above.

PKCβ1 = biological target: T3, PKCβ1 (Homo sapiens, UniProt P05771); test: Protein Kinase Cβ1 assay; assay type: biochemical; details: ratio of IC50 values
T3 construct: purchased Oxford Biomedical Research
T3 sequence (P05771 whole entry): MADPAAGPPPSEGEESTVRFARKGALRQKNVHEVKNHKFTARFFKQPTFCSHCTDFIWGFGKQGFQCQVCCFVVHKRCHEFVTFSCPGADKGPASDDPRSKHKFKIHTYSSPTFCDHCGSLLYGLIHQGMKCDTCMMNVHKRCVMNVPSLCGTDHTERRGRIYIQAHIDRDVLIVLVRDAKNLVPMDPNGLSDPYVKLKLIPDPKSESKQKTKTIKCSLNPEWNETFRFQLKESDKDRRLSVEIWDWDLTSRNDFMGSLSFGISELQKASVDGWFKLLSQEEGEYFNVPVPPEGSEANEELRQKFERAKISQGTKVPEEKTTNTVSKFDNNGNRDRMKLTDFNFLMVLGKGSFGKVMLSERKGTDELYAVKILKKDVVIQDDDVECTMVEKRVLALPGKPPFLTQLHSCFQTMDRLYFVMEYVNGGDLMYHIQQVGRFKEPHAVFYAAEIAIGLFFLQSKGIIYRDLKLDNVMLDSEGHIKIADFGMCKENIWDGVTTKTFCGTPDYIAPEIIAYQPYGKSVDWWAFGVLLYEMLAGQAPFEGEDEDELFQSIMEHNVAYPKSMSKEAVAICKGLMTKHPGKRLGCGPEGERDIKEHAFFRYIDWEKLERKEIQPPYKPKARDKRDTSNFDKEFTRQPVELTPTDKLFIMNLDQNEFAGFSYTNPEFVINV
Method: as §1
Human recombinant PKCβ1 was obtained from Oxford Biomedical Research and is used under the assay conditions as described under Section A.1 above.

PKCδ = biological target: T4, PKCδ (Homo sapiens, UniProt Q05655); test: Protein Kinase Cδ assay; assay type: biochemical; details: ratio of IC50 values
T4 construct: purchased Oxford Biomedical Research
T4 sequence (Q05655 whole entry): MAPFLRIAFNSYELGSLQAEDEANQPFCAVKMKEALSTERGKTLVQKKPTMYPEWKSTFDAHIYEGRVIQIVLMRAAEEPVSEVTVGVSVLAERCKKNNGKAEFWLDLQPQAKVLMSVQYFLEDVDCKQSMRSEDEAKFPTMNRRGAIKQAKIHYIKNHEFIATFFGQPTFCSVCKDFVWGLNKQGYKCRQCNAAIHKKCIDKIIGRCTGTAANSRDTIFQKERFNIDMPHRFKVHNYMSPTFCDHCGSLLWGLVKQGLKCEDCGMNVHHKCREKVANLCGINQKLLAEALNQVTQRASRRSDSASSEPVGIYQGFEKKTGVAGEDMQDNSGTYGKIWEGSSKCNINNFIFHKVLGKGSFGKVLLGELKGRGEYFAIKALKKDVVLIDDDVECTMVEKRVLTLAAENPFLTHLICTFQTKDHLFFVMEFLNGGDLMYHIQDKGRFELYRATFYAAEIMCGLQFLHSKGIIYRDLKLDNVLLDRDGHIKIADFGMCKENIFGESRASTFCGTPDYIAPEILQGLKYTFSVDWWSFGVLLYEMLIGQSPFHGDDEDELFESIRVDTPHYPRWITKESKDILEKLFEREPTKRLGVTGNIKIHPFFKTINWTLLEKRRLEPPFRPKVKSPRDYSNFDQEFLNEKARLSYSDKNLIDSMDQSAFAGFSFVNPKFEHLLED
Method: as §1
Human recombinant PKC was obtained from Oxford Biomedical Research and is used under the assay conditions as described under Section A.1 above.

PKCε = biological target: T5, PKCε (Homo sapiens, UniProt Q02156); test: Protein Kinase Cε assay; assay type: biochemical; details: ratio of IC50 values
T5 construct: purchased Oxford Biomedical Research
T5 sequence (Q02156 1-737): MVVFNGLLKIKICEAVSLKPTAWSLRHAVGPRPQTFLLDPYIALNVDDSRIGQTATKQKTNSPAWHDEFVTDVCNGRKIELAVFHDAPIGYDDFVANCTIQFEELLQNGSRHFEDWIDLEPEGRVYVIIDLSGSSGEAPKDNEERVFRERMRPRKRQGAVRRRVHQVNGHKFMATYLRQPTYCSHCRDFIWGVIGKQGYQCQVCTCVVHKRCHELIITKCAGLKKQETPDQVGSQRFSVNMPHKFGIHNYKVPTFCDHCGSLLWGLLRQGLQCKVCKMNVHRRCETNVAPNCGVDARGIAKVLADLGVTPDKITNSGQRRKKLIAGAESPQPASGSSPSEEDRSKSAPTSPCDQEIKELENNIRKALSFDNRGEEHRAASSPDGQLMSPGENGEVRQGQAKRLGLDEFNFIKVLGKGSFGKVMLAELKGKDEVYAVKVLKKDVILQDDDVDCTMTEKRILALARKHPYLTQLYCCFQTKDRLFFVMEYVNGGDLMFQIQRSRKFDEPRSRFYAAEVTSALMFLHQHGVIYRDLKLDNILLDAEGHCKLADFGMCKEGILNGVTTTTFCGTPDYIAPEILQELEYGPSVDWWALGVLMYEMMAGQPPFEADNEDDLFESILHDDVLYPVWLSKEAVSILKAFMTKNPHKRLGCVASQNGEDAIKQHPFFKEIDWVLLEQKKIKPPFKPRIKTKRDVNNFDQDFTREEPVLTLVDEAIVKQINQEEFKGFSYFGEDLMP
Method: as §1
Human recombinant PKCη was obtained from Oxford Biomedical Research and is used under the assay conditions as described under Section A.1 above.

[1] = test system: Bone marrow cells from CBA mice; test: Bone Marrow Cell Proliferation (BM) assay; assay type: cell-based; details: mouse cells
Method: Bone marrow cells from CBA mice (2.5×10^4 cells per well in flat bottom tissue culture microtiter plates) are incubated in 100 μL RPMI medium containing 10% FCS, 100 U/mL penicillin, 100 μg/mL streptomycin (Gibco BRL, Baselm Switzerland), 50 μM 2-mercaptoethanol (Fluka, Buchs, Switzerland), WEHI-3 conditioned medium (7.5% v/v) and L929 conditioned medium (3% v/v) as a source of growth factors and serially diluted compounds. Seven three-fold dilution steps in duplicates per test compounds are performed. After four days of incubation 1 μCi ^3H-thymidine is added. Cells are harvested after an additional five-hour incubation period, and incorporated ^3H-thymidine is determined according to standard procedures. Conditioned media are prepared as follows. WEHI-3 cells (ATCC TIB68) and L929 cells (ATCC CCL 1) are grown in RPMI medium until confluence for 4 days and one week, respectively. Cells are harvested, resuspended in the same culture flasks in medium C containing 1% FCS (Schreier and Tess 1981) for WEHI-3 cells and RPMI medium for L929 cells and incubated for 2 days (WEHI-3) or one week (L929). The supernatant is collected, filtered through 0.2 μm and stored in aliquots at −80° C. Cultures without test compounds and without WEHI-3 and L929 supernatants are used as low control values. Low control values are substracted from all values. […]

T1 sequence (P24723 whole entry): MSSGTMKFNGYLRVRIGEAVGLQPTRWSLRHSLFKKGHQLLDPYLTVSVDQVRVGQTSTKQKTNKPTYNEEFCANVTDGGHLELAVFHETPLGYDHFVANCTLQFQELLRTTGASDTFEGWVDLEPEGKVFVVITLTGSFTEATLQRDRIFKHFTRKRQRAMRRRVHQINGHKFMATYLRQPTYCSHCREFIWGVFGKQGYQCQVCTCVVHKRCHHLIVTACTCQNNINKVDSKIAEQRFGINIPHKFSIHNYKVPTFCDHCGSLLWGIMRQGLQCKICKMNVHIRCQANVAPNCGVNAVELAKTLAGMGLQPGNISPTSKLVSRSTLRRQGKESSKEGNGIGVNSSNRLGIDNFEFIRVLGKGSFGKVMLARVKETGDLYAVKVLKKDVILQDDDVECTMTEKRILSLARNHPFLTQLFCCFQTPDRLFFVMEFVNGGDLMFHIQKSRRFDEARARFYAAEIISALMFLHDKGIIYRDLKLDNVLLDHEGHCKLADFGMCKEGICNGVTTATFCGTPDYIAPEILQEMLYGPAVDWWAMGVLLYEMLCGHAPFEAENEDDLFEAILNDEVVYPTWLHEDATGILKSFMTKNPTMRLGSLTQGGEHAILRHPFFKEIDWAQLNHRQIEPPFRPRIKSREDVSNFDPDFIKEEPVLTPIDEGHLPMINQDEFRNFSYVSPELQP

| IC50 (PKCη) [nM] | θ/η: ratio of the IC50 value for PKCθ to the IC50 value for PKCη (PKCθ) | α/η: ratio of the IC50 value for PKCα to the IC50 value for PKCη (PKCα) | β/η: ratio of the IC50 value for PKC β to the IC50 value for PKCη (PKCβ1) | δ/η: ratio of the IC50 value for PKCδ to the IC50 value for PKCη (PKCδ) | ε/η: ratio of the IC50 value for PKCε to the IC50 value for PKCη (PKCε) | Compound | BM/MLR: ratio of IC50 values of BM assay and MLR assay [1] |
| --- | --- | --- | --- | --- | --- | --- | --- |
| 54 |  |  |  |  |  | CC(C)(N)CNc1cc(-c2ccncc2)cc2cnccc12 [Example 83, 2-Methyl-N*1*-(7-pyridin-4-yl-isoquinolin-5-yl)-propane-1,2-diamine] |  |
|  | 30 | 506 | 196 | 4 | 3 | C[C@H](N)CNc1nc(-c2ccncc2)cc2cnccc12 [Example 71a, (S)—N*1*-(3-Pyridin-4-yl-[2,6]naphthyridin-1-yl)-propane-1,2-diamine] | 30 |
|  | 26 | 17 | 14 | 15 | 1 | C[C@@H]1CN(c2nc(-c3ccncc3)cc3cnccc23)[C@@H](C)CN1 (racemic) [Example 23, Rac-1-((2S,5R)-2,5-Dimethyl-piperazin-1-yl)-3-pyridin-4-yl-[2,6]naphthyridine] | 24 |
| 162 |  |  |  |  |  | CC(C)(N)COc1nc(-c2ccncc2)cc2cnccc12 [Example 81, 1,1-Dimethyl-2-(3-pyridin-4-yl-[2,6]naphthyridin-1-yloxy)-ethylamine] |  |
